Test results reported in ChEMBL document CHEMBL1201862, “PubChem BioAssay data set” (2004).
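The compound was tested at five concentrations on cells cultured in 96-well plates, with a 48-hour exposure period. GI50 = concentration required for 50% inhibition of growth.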 Active and inactive are the calls of the source. Cut-off read from the data, not from the text of the source: active = GI50 up to about 1.1 µM and inactive = higher.

How the values were obtained:
Experiment in all cases: NCI tumour cell line growth inhibition, 48 h
A549 = test system: A549
ACHN = test system: ACHN
CAKI-1 = test system: CAKI-1
CCRF-CEM = test system: CCRF-CEM
HCC 2998 = test system: HCC 2998
HOP-92 = test system: HOP-92
IGROV-1 = test system: IGROV-1
K562 = test system: K562
MDA-MB-231 = test system: MDA-MB-231
MOLT-4 = test system: MOLT-4
NCI-H226 = test system: NCI-H226
OVCAR-3 = test system: OVCAR-3
RPMI-8226 = test system: RPMI-8226
SK-MEL-5 = test system: SK-MEL-5
SN12C = test system: SN12C
U-251 = test system: U-251
UACC-62 = test system: UACC-62
Malme-3M = test system: Malme-3M
NCI-H23 = test system: NCI-H23
T47D = test system: T47D

Measured: GI50

CCOC(=O)c1c(C)nc2c3ccccc3c(C#N)c(C)n12
inactive: A549 50.1 µM | ACHN 57.5 µM | CAKI-1 79.3 µM | CCRF-CEM > 100 µM | HCC 2998 > 100 µM | HOP-92 58.7 µM | IGROV-1 23 µM | K562 > 100 µM | MDA-MB-231 14.3 µM | MOLT-4 > 100 µM | NCI-H226 > 100 µM | OVCAR-3 > 100 µM | RPMI-8226 > 100 µM | SK-MEL-5 48.1 µM | SN12C > 100 µM | U-251 70.8 µM | UACC-62 > 100 µM

O=S(=O)(c1ccc(/N=C2\NC(c3ccc(O)cc3)(c3ccccc3O)c3ccccc32)cc1)c1ccc(/N=C2/NC(c3ccc(O)cc3)(c3ccccc3O)c3ccccc32)cc1 (stereo not drawn)
inactive: A549 6.15 µM | ACHN 20.2 µM | CAKI-1 12.9 µM | CCRF-CEM 3.37 µM | HCC 2998 4.63 µM | HOP-92 3.91 µM | IGROV-1 2.68 µM | K562 3.52 µM | MOLT-4 4.04 µM | Malme-3M 2.32 µM | NCI-H226 2.5 µM | NCI-H23 2.62 µM | OVCAR-3 4.74 µM | RPMI-8226 5.22 µM | SK-MEL-5 4.46 µM | SN12C 3.78 µM | T47D 2.25 µM | UACC-62 3.85 µM

CSC1(CC(=O)N2CCCCC2)C(=O)Nc2ccccc21 (stereo not drawn)
inactive: A549 > 100 µM | ACHN > 100 µM | HCC 2998 > 100 µM | IGROV-1 > 100 µM | K562 > 100 µM | MOLT-4 > 100 µM | Malme-3M > 100 µM | NCI-H226 > 100 µM | NCI-H23 > 100 µM | OVCAR-3 > 100 µM | RPMI-8226 > 100 µM | SK-MEL-5 > 100 µM | T47D > 100 µM | U-251 > 100 µM | UACC-62 > 100 µM

CC(C)(O)/C=C\P(=O)(O)O
inactive: A549 > 100 µM | ACHN > 100 µM | CAKI-1 > 100 µM | HCC 2998 > 100 µM | HOP-92 > 100 µM | IGROV-1 > 100 µM | K562 > 100 µM | Malme-3M > 100 µM | NCI-H226 > 100 µM | NCI-H23 > 100 µM | OVCAR-3 > 100 µM | SK-MEL-5 > 100 µM | SN12C > 100 µM | T47D 7.1 µM | U-251 > 100 µM | UACC-62 > 100 µM

Cc1c(C#N)c2ccccc2c2nc3ccccc3n12
inactive: A549 93.1 µM | ACHN 64.1 µM | CAKI-1 67.9 µM | CCRF-CEM > 100 µM | HCC 2998 64.3 µM | HOP-92 > 100 µM | IGROV-1 31.9 µM | K562 > 100 µM | MDA-MB-231 20.6 µM | MOLT-4 47.5 µM | NCI-H226 > 100 µM | OVCAR-3 > 100 µM | RPMI-8226 > 100 µM | SK-MEL-5 5.82 µM | SN12C 63.2 µM | U-251 > 100 µM | UACC-62 > 100 µM

CNC(=O)C(NC(=O)[C@H](CC(C)C)NC(=O)[C@@H](S)CCN1C(=O)N(C)C(C)(C)C1=O)C(C)(C)C (stereo partly drawn)
inactive: A549 > 100 µM | ACHN > 100 µM | CAKI-1 > 100 µM | HCC 2998 > 100 µM | HOP-92 > 100 µM | IGROV-1 > 100 µM | K562 79.6 µM | MOLT-4 > 100 µM | Malme-3M > 100 µM | NCI-H226 > 100 µM | NCI-H23 > 100 µM | RPMI-8226 > 100 µM | SK-MEL-5 > 100 µM | SN12C > 100 µM | T47D > 100 µM | UACC-62 > 100 µM

CCOC(=O)N1CCC2(CC1)C[C@](C)(C(C)=O)C(C)O2 (stereo partly drawn)
inactive: A549 > 100 µM | ACHN > 100 µM | CAKI-1 > 100 µM | HCC 2998 > 100 µM | HOP-92 > 100 µM | IGROV-1 > 100 µM | K562 > 100 µM | MDA-MB-231 > 100 µM | MOLT-4 > 100 µM | Malme-3M > 100 µM | NCI-H226 > 100 µM | NCI-H23 > 100 µM | OVCAR-3 > 100 µM | RPMI-8226 > 100 µM | SK-MEL-5 > 100 µM | U-251 > 100 µM | UACC-62 > 100 µM

O=c1c2ccccc2nc2n1C(c1ccc([N+](=O)[O-])cc1)C2(c1ccccc1)c1ccccc1 (stereo not drawn)
inactive: A549 12.9 µM | ACHN > 100 µM | CAKI-1 > 100 µM | CCRF-CEM 8.45 µM | HOP-92 > 100 µM | IGROV-1 > 100 µM | MDA-MB-231 > 100 µM | MOLT-4 5.46 µM | Malme-3M > 100 µM | NCI-H23 > 100 µM | OVCAR-3 > 100 µM | RPMI-8226 8.2 µM | SK-MEL-5 > 100 µM | SN12C > 100 µM | T47D > 100 µM | U-251 > 100 µM | UACC-62 > 100 µM
